From article PMC9207808 (ACS Chemical Biology, 2022)
Residues, ends and D or L forms follow the SMILES beside them.

Tests used:
[1] = test system: S. Typhimurium (14028) Δphd-doc::Km strains coexpressing DocSTm; assay: Growth rescue experiment in S. Typhimurium; assay type: cell-based; settings: coexpression of DocSTm (pBAD33, arabinose) and Phd construct (pCA24N, basal expression); OD600 over time, M9 minimal medium; average of three independent experiments
Experimental: The cotransformations above were also performed with an empty pBAD33 plasmid, as a control for the absence of DocSTm expression.
For the growth rescue experiment, overnight (1% tryptone, 0.5% yeast extract, 0.5% NaCl, 1% glucose, 100 μg/mL of carbenicillin, and 34 μg/mL of chloramphenicol) cultures of the generated S. Typhimurium strains were diluted to an OD600 of approximately 0.006 into fresh M9 minimal medium supplemented with 0.5% or 1% arabinose, 0.4% glycerol, 0.4% casamino acids, 100 μg/mL of carbenicillin, and 34 μg/mL of chloramphenicol. Cell growth at a given time was monitored at OD600 with a Genesys 140 Visible Spectrophotometer (Thermo Scientific).

[2] = test system: DocSTm; assay: Dot blot phosphorylation assay (EF-Tu phosphorylation by Doc); assay type: biochemical, S. Typhimurium; settings: DocSTm 1 μM, EF-TuSTm 3 μM, ATP 1 mM; for inhibition of EF-TuSTm phosphorylation by DocSTm (in words): α-pThr, inhibitor 10 μM to 5 nM (3-fold dilutions), 16 h at RT
Experimental: Samples were prepared to a final volume of 10 μL. […] Samples were incubated for 16 h at RT and subsequently spotted on a nitrocellulose membrane. Phosphorylated EF-Tu was detected by immunodecoration using a rabbit monoclonal antiphosphothreonine antibody (Abcam, ab218195) at 1:2000 dilution (1 h at 4 °C), followed by incubation with a goat antirabbit IgG (H+L) HRP conjugate antibody (Advansta) at 1:10 000 dilution (1 h at RT). Chemiluminescence was developed using the HRP Luminata kit (Merck, WBLUR0100) and captured by an ImageQuant LAS4000 Western blot imaging system (Cytiva).

[3] = biological target: DocSTm; assay: Surface plasmon resonance binding to immobilised Doc; parameters: species or system S. Typhimurium; settings: for koff × 10^-6 / kon × 10^6: 1:1 kinetic fit, mean ± SD of at least 3 replicates; for kon × 10^6: single-cycle kinetics (multicycle for PhdSTm1-73); for Half-life of the complex: t1/2 = ln2 / koff; for gain of affinity compared to peptide 1: SPR Kd relative to peptide 1; for affinity to DocSTm greater than that of peptides 7, 10 and 14: SPR Kd ratio; for fold decrease in affinity (given as decrease/loss in Kd) compared with peptide 1: SPR Kd relative to wild-type peptide 1
Outline: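 Binding constants are means ± SD of at least three replicates: steady-state Kd directly, or Kd calculated from kinetic kon and koff. Sensorgrams were double-referenced and fitted 1:1 after 80 s analyte injections (30 μL/min), either multicycle or single-cycle, over NTA-immobilised Doc. Running buffer was HEPES/500 mM NaCl/EDTA/Tween pH 8.0 at 22 °C.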

[4] = test system: DocSTm; assay: Differential scanning fluorimetry (thermal stabilisation of Doc); assay type: binding, S. Typhimurium; settings: for melting temperature shift ΔTm: DSF, DocSTm 5 μM, analyte 50 μM, Tm with analyte minus Tm of free DocSTm (42.9 ± 0.9 °C), SYPRO Orange, 20 mM K2HPO4, 50 mM (NH4)2SO4, pH 8.0, triplicate; for Average Tm / Tm: DocSTm 5 µM + 50 µM binder; for Average Tm: average of 3 replicates
Outline: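 Tm values come from fitting the sigmoidal melt region to a Boltzmann function. Doc (5 μM final) was ramped 25–95 °C with SYPRO Orange (3× final) in pH 8.0 buffer of 20 mM K2HPO4 and 50 mM (NH4)2SO4; each condition in triplicate.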

[5] = SPR, kinetic fit, KD calculated from mean koff and kon, SD propagated, 22 °C, pH 8.0

| Compound | rescue of Salmonella growth from DocSTm-induced growth inhibition (in words) [1] | inhibition of EF-TuSTm phosphorylation by DocSTm (in words) [2] | Kd ([3]; SPR kinetic fit, replicate 1) [nM] | Kd ([3]; SPR kinetic fit, replicate 2) [nM] | Kd ([3]; SPR kinetic fit, replicate 3) [nM] | koff × 10^-6 ([3]; SPR, 22 °C, pH 8.0) | kon × 10^6 ([3]; SPR, 22 °C, pH 8.0) | Half-life of the complex [3] [h] | melting temperature shift ΔTm [4] [°C] | Average Tm [4] [°C] | Tm ([4]; replicate 1) [°C] | Tm ([4]; replicate 2) [°C] | Tm ([4]; replicate 3) [°C] | improvement in koff compared with 1 ([3]; SPR) [fold] | improvement in kon compared with 1 ([3]; SPR) [fold] | gain of affinity compared to peptide 1 [3] | Kd [3, 5] [nM] | affinity to DocSTm greater than that of peptides 7, 10 and 14 [3] | fold decrease in affinity (given as decrease/loss in Kd) compared with peptide 1 [3] | further results |
| --- | --- | --- | --- | --- | --- | --- | --- | --- | --- | --- | --- | --- | --- | --- | --- | --- | --- | --- | --- | --- |
| CC[C@H](C)[C@H](NC(=O)[C@H](C)NC(=O)[C@H](C)NC(=O)[C@H](Cc1ccccc1)NC(=O)[C@H](CCC(=O)O)NC(=O)[C@H](CC(=O)O)NC(=O)[C@H](CC(=O)O)NC(=O)[C@H](CCSC)NC(=O)[C@H](Cc1c[nH]c2ccccc12)NC(C)=O)C(=O)N[C@@H](CCSC)C(=O)N[C@@H](C)C(=O)N[C@H](C(=O)N[C@@H](Cc1c[nH]cn1)C(=O)NCC(=O)N[C@@H](CC(N)=O)C(=O)N[C@@H](CCC(=O)O)C(=O)N[C@@H](CC(C)C)C(=O)N[C@@H](CCCNC(=N)N)C(=O)N[C@@H](CCC(=O)O)C(=O)N[C@@H](CC(C)C)C(=O)N[C@@H](C)C(=O)N[C@@H](CC(=O)O)C(=O)N[C@@H](CCCCN)C(=O)O)C(C)C [peptide 1] (Ac-WMDDEFAAIMAVHGNELRELADK-OH) | only rescued growth after a delay and longer incubation times of 16–18 h | comparable inhibition of the kinase activity | 0.0734 | 0.0838 | 0.0591 | 91 ± 11 ×10^-6 s-1 | 1.250 ± 0.259 ×10^6 M-1 s-1 | 2.1 ± 0.3 | 28.8 ± 0.9 | 71.7 ± 0.1 | 71.8 | 71.5 | 71.6 | – | – | – | – | – | – | concentration at which EF-TuSTm phosphorylation is fully inhibited [2]: ≥ 1 µM; Kd ([3]; SPR kinetic fit, replicate 4): 0.0819 nM |
| CC[C@H](C)[C@H](NC(=O)[C@H](C)NC(=O)[C@H](C)NC(=O)[C@H](Cc1ccccc1)NC(=O)[C@H](CCC(=O)O)NC(=O)[C@H](CC(=O)O)NC(=O)[C@H](C)NC(=O)[C@H](CCSC)NC(=O)[C@H](Cc1c[nH]c2ccccc12)NC(C)=O)C(=O)N[C@@H](CCSC)C(=O)N[C@@H](C)C(=O)N[C@H](C(=O)N[C@@H](Cc1c[nH]cn1)C(=O)NCC(=O)N[C@@H](CC(N)=O)C(=O)N[C@@H](CCC(=O)O)C(=O)N[C@@H](CC(C)C)C(=O)N[C@@H](CCCNC(=N)N)C(=O)N[C@@H](CCC(=O)O)C(=O)N[C@@H](CC(C)C)C(=O)N[C@@H](C)C(=O)N[C@@H](CC(=O)O)C(=O)N[C@@H](CCCCN)C(=O)O)C(C)C [peptide 3] (Ac-WMADEFAAIMAVHGNELRELADK-OH; C-terminus assumed) | a faster recovery was achieved | inhibited DocSTm at similar concentrations to peptide 1 | 0.0121 | 0.0166 | 0.00992 | 65 ± 18 ×10^-6 s-1 | 5.073 ± 0.369 ×10^6 M-1 s-1 | 2.9 ± 0.8 | 25.6 ± 0.9 | 68.5 ± 0.3 | 68.3 | 68.4 | 68.8 | ~1.5 | ~4 | greater than 5 fold | 0.013 | – | – | – |
| CC[C@H](C)[C@H](NC(=O)[C@H](C)NC(=O)[C@H](C)NC(=O)[C@H](Cc1ccccc1)NC(=O)[C@H](CCC(=O)O)NC(=O)[C@H](C)NC(=O)[C@H](CC(=O)O)NC(=O)[C@H](CCSC)NC(=O)[C@H](Cc1c[nH]c2ccccc12)NC(C)=O)C(=O)N[C@@H](CCSC)C(=O)N[C@@H](C)C(=O)N[C@H](C(=O)N[C@@H](Cc1c[nH]cn1)C(=O)NCC(=O)N[C@@H](CC(N)=O)C(=O)N[C@@H](CCC(=O)O)C(=O)N[C@@H](CC(C)C)C(=O)N[C@@H](CCCNC(=N)N)C(=O)N[C@@H](CCC(=O)O)C(=O)N[C@@H](CC(C)C)C(=O)N[C@@H](C)C(=O)N[C@@H](CC(=O)O)C(=O)N[C@@H](CCCCN)C(=O)O)C(C)C [peptide 4] (Ac-WMDAEFAAIMAVHGNELRELADK-OH; C-terminus assumed) | restored bacterial growth following similar kinetics as the wild-type sequence | inhibited DocSTm at similar concentrations to peptide 1 | 0.0128 | 0.0166 | 0.0101 | 62 ± 17 ×10^-6 s-1 | 4.733 ± 0.155 ×10^6 M-1 s-1 | 3.1 ± 0.8 | 26.2 ± 0.9 | 69.1 ± 0.2 | 69.0 | 69.3 | 69.1 | ~1.5 | ~4 | greater than 5 fold | 0.013 | – | – | – |
| CC[C@H](C)[C@H](NC(=O)[C@H](C)NC(=O)[C@H](C)NC(=O)[C@H](C)NC(=O)[C@H](CCC(=O)O)NC(=O)[C@H](CC(=O)O)NC(=O)[C@H](CC(=O)O)NC(=O)[C@H](CCSC)NC(=O)[C@H](Cc1c[nH]c2ccccc12)NC(C)=O)C(=O)N[C@@H](CCSC)C(=O)N[C@@H](C)C(=O)N[C@H](C(=O)N[C@@H](Cc1c[nH]cn1)C(=O)NCC(=O)N[C@@H](CC(N)=O)C(=O)N[C@@H](CCC(=O)O)C(=O)N[C@@H](CC(C)C)C(=O)N[C@@H](CCCNC(=N)N)C(=O)N[C@@H](CCC(=O)O)C(=O)N[C@@H](CC(C)C)C(=O)N[C@@H](C)C(=O)N[C@@H](CC(=O)O)C(=O)N[C@@H](CCCCN)C(=O)O)C(C)C [peptide 6] (Ac-WMDDEAAAIMAVHGNELRELADK-OH; C-terminus assumed) | not able to counteract DocSTm-induced growth inhibition of Salmonella | among the poorest inhibitors of EF-TuSTm phosphorylation | 1 | 0.919 | 0.745 | 843 ± 231 ×10^-6 s-1 | 0.989 ± 0.434 ×10^6 M-1 s-1 | 0.23 ± 0.06 | 21.1 ± 1.0 | 64.0 ± 0.5 | 64.5 | 64.1 | 63.5 | – | – | – | 0.852 | at least 12 fold | 8- to 30 fold | – |
| CC[C@H](C)[C@H](NC(=O)[C@H](C)NC(=O)[C@H](C)NC(=O)[C@H](Cc1ccccc1)NC(=O)[C@H](CCC(=O)O)NC(=O)[C@H](CC(=O)O)NC(=O)[C@H](CC(=O)O)NC(=O)[C@H](CCSC)NC(=O)[C@H](Cc1c[nH]c2ccccc12)NC(C)=O)C(=O)N[C@@H](CCSC)C(=O)N[C@@H](C)C(=O)N[C@H](C(=O)N[C@@H](Cc1c[nH]cn1)C(=O)NCC(=O)N[C@@H](CC(N)=O)C(=O)N[C@@H](CCC(=O)O)C(=O)N[C@@H](CC(C)C)C(=O)N[C@@H](CCCNC(=N)N)C(=O)N[C@@H](CCC(=O)O)C(=O)N[C@@H](C)C(=O)N[C@@H](C)C(=O)N[C@@H](CC(=O)O)C(=O)N[C@@H](CCCCN)C(=O)O)C(C)C [peptide 17] (Ac-WMDDEFAAIMAVHGNELREAADK-OH; C-terminus assumed) | not able to counteract DocSTm-induced growth inhibition of Salmonella | among the poorest inhibitors of EF-TuSTm phosphorylation | 2.1 | 1.98 | 1.02 | 5967 ± 404 ×10^-6 s-1 | 3.837 ± 1.398 ×10^6 M-1 s-1 | 0.032 ± 0.002 | 15.2 ± 1.0 | 58.0 ± 0.4 | 58.5 | 57.9 | 57.8 | – | – | – | 1.55 ± 0.58 | at least 12 fold | 8- to 30 fold | – |
